Residues, ends and D or L forms follow the SMILES beside them. No end group written: not given here.
Columns and labels:
[1] = tested on: human umbilical vein endothelial cells (HUVEC); assay: Copper-induced IL-8 secretion from HUVEC (ELISA); assay type: cell-based; settings: 25 μM CuCl2, 24 hours; P<0.007
Description: Human umbilical vein endothelial cells (HUVEC) (5.0×10^4 cells) were incubated in serum-free and ascorbate-free endothelial cell basal medium-2 (EGM2) medium (BioWhittaker) with ITS supplement with (i) copper, (ii) a tetrapeptide analogue of the high-affinity, N-terminal Cu(II) binding site of human albumin (D-Asp D-Ala D-His D-Lys or d-DAHK), or (iii) both of them (n=3, in duplicate). IL-8 was determined by ELISA (see Example 13). […] Upon visual examination, all cells appeared to be viable at 24 hours.

[2] = Cu(II)/H2O2 hydroxyl radical generation, 2-deoxy-D-ribose degradation (TBA, 532 nm), Example 7; assay type: biochemical; settings: CuCl2 0.1 mM, H2O2 2.0 mM
Description: The ability of the L-tetrapeptide to inhibit the generation of ROS was tested as described in Gutteridge and Wilkins, Biochim. Biophys. Acta, 759, 38-41 (1983) and Cheeseman et al., Biochem. J., 252, 649-653 (1988). Briefly, Cu(II) and H2O2 were mixed causing the generation of hydroxyl radicals in a Fenton-type reaction. The hydroxyl radicals attack the sugar 2-deoxy-D-ribose (the sugar residue of DNA) to produce fragments. Heating the fragments at low pH produces malonaldehyde that, upon the addition of 2-thiobarbituric acid, yields a pink chromogen which can be measured spectrophotometrically at 532 nm. Thus, the absorbance at 532 nm is a measure of the damage to 2-deoxy-D-ribose.
The assay was performed with and without the L-tetrapeptide. […] Clearly, the L-tetrapeptide inhibited the degradation of 2-deoxy-D-ribose by hydroxyl radicals.

[3] = Passage through a model of the blood brain barrier; assay type: in vitro ADME
[4] = Inhibition of hydroxyl radical production, Cu(II)/ascorbic acid deoxyribose/TBA assay, Example 10; assay type: biochemical; settings: for % Inhibition (decrease in absorbance compared to buffer alone): CuCl2 10 μM; for formation of the pink chromogen: data not shown
Description: The ability of the compounds listed above to inhibit the generation of hydroxyl radicals was tested as described in Gutteridge and Wilkins, Biochim. Biophys. Acta, 759:38-41 (1983). Briefly, Cu(II) and ascorbic acid were mixed causing the generation of hydroxyl radicals. Then, deoxyribose was added, and the hydroxyl radicals, if present, attacked the deoxyribose to produce fragments. […]. Thus, absorbance at 532 nm is a measure of the damage to deoxyribose and, therefore, of hydroxyl radical formation.
To perform the assay, CuCl2 in buffer (20 mM KH2PO4 buffer, pH 7.4) and either one of the test compounds in buffer or buffer alone were added to test tubes (final concentration of CuCl2 was 10 μM). The test tubes were incubated for 15 minutes at room temperature. Then, 0.5 mM ascorbic acid in buffer and 1.9 mM 2-deoxy-D-ribose in buffer were added to each test tube, and the test tubes were incubated for 1 hour at 37° C. Finally, 1 ml of 1% (w/v) TBA in 50 mM NaOH and 1 ml of concentrated acetic acid were added to each test tube, and the test tubes were incubated in boiling water for 15 minutes. After the test tubes had cooled for 15 minutes, the absorbance at 532 nm was read.
Histidine and several peptides with histidine in different positions were tested at 1:1 and 2:1 peptide:copper ratios for their ability to inhibit the production of hydroxyl radicals. Also, a peptide having an acetylated aspartic acid (Ac-Asp) as the N-terminal amino acid was also tested. In Table 11, the % inhibition is the percent decrease in absorbance compared to buffer alone divided by the absorbance of the buffer alone.

[5] = Inhibition of hydroxyl radical production by peptides, Cu(II)/ascorbic acid deoxyribose/TBA assay, Example 16; assay type: biochemical
Description: The ability of the peptides listed in Table 14 to inhibit the generation of hydroxyl radicals was tested. Hydroxyl radicals were generated by mixing Cu(II) and ascorbic acid. When deoxyribose was added, the hydroxyl radicals, if present, attacked the deoxyribose to produce fragments. Heating the fragments at low pH produced malonaldehyde that, upon the addition of 2-thiobarbituric acid (TBA), yielded a pink chromogen which was measured spectrophotometrically at 532 nm. Thus, absorbance at 532 nm is a measure of the damage to deoxyribose and, therefore, of hydroxyl radical formation.
To perform the assay, (a) 50 μl of 200 μM CuCl2 in water, (b) water or enough of one of the test peptides in water (total volume of 150 μl) to give peptide:copper ratios of 1:4, 1:2, 1:1, 2:1, 4:1, 6:1 and 8:1, and (c) 525 μl buffer (20 mM KH2PO4 buffer, pH 7.4) were added to test tubes. The test tubes were incubated for 15 minutes at room temperature. Then, 25 μl of 20 mM ascorbic acid in buffer and 250 μl of 7.5 mM 2-deoxy-D-ribose in water were added to each test tube, and the test tubes were incubated for 1 hour at 37° C. Finally, 1 ml of 1% (w/v) TBA in 50 mM NaOH and 1 ml of glacial acetic acid were added to each test tube, and the test tubes were incubated in boiling water for 15 minutes. After the test tubes had cooled for 15 minutes, the absorbance at 532 nm was read. The results are presented in attached FIGS. 26A-V.

[6] = compound:copper 1:1, copper only control 0.767
[7] = compound:copper 2:1, copper only control 0.767
[8] = peptide:copper ratios of 2:1 or less
[9] = compound:copper 1:1, copper only control 0.954
[10] = compound:copper 2:1, copper only control 0.954

In the case of [Cl][Cu][Cl] [CuCl2], the “IL-8 secretion as compared to controls incubated with water” value [1] is reported as over 5.5 fold higher.

For C[C@H](NC(=O)[C@@H](N)CC(=O)O)C(=O)N[C@@H](Cc1c[nH]cn1)C(=O)N[C@@H](CCCCN)C(=O)O [L-Asp L-Ala L-His L-Lys] (H-DAHK-OH), the “Percent Inhibition (degradation of 2-deoxy-D-ribose)” value ([2]; tetrapeptide 0.12 mM (Cu(II):tetrapeptide 1:1.2)) was 38%, the “Percent Inhibition (degradation of 2-deoxy-D-ribose)” value ([2]; tetrapeptide 0.2 mM (Cu(II):tetrapeptide 1:2)) was 73% and the “passage through a model of the blood brain barrier” value [3] was “pass through a model of the blood brain barrier”.

In the case of “Acetylated-L-Asp L-Ala L-His L-Lys L-Ser L-Glu L-Val L-Ala L-His L-Arg L-Phe L-Lys (Ac-DAHKSEVAHRFK; listed as Homo sapiens)”, the “% Inhibition (decrease in absorbance compared to buffer alone)” value ([4]; compound:copper 1:1) is reported as 16.9%, the “Absorbance at 532 nm” value [4, 6] is reported as 0.633 and the “% Inhibition (decrease in absorbance compared to buffer alone)” value ([4]; compound:copper 2:1) is reported as 27.5%. The “Absorbance at 532 nm” value [4, 7] was 0.692.

In the case of Ala Ala His His (AAHH), the “inhibition of hydroxyl radical production” value ([5]; 1:4 peptide:copper ratio) is reported as “complete inhibition” and the “inhibition of hydroxyl radical production” value [5, 8] is reported as “effectively inhibited hydroxyl radical production”.

In the case of Asp Ala His Lys-NH2 (DAHK-NH2), the “inhibition of hydroxyl radical production” value [5, 8] is reported as “effectively inhibited hydroxyl radical production”.

For Catalase, the “formation of the pink chromogen” value ([4]; catalase 0-80 nM) was “prevent the formation of the pink chromogen” and the “formation of the pink chromogen” value ([4]; catalase with L-Asp L-Ala L-His L-Lys present at tetrapeptide/copper 1:1) was “prevents the formation of the pink chromogen”.

For “DAHGMTCANC (cysteine pairing not given here)”, the “inhibition of hydroxyl radical production” value ([5]; 1:1 peptide:copper ratio) was “complete inhibition” and the “inhibition of hydroxyl radical production” value [5, 8] was “effectively inhibited hydroxyl radical production”.

In the case of “DAHGMTCARC (cysteine pairing not given here)”, the “inhibition of hydroxyl radical production” value [5, 8] is reported as “effectively inhibited hydroxyl radical production”.

In the case of “L-Ala L-His L-Lys L-Ser L-Glu L-Val L-Ala L-His L-Arg L-Phe L-Lys (AHKSEVAHRFK; listed as Homo sapiens)”, the “% Inhibition (decrease in absorbance compared to buffer alone)” value ([4]; compound:copper 1:1) is reported as 11.6%, the “Absorbance at 532 nm” value [4, 9] is reported as 0.843 and the “% Inhibition (decrease in absorbance compared to buffer alone)” value ([4]; compound:copper 2:1) is reported as 95.1%. The “Absorbance at 532 nm” value [4, 10] was 0.047.

In the case of “L-Asp L-Ala L-His L-Lys L-Ser L-Glu L-Val L-Ala L-His L-Arg L-Phe L-Lys (DAHKSEVAHRFK; listed as Homo sapiens)”, the “% Inhibition (decrease in absorbance compared to buffer alone)” value ([4]; compound:copper 1:1) is reported as 13.2%, the “Absorbance at 532 nm” value [4, 6] is reported as 0.645 and the “% Inhibition (decrease in absorbance compared to buffer alone)” value ([4]; compound:copper 2:1) is reported as 95.8%. For the same molecule, the “Absorbance at 532 nm” value [4, 7] was 0.040.

For “L-His L-Lys L-Ser L-Glu L-Val L-Ala L-His L-Arg L-Phe L-Lys (HKSEVAHRFK; listed as Homo sapiens) [His Lys Ser Glu Val Ala His Arg Phe Lys]”, the “% Inhibition (decrease in absorbance compared to buffer alone)” value ([4]; compound:copper 1:1) was 24.9%, the “Absorbance at 532 nm” value [4, 9] was 0.716 and the “% Inhibition (decrease in absorbance compared to buffer alone)” value ([4]; compound:copper 2:1) was 46.6%. The “Absorbance at 532 nm” value [4, 10] was 0.509.

In the case of Ser Gly His, the “inhibition of hydroxyl radical production” value [5, 8] is reported as “effectively inhibited hydroxyl radical production”.

For Thr Leu His, the “inhibition of hydroxyl radical production” value [5, 8] was “effectively inhibited hydroxyl radical production”.

From patent US20110263817A1, “METAL-BINDING COMPOUNDS AND USES THEREFOR” (priority 1999, published 2011)
